Reference: PMC10199925, “Cyclodextrin carboxylate improves the stability and activity of nisin in a wider range of application conditions” (NPJ Science of Food, 2023)
Where no end group is shown, it is not given here. [ ]: non-standard residue; d: D form. Dhb = C/C=C(\N)C(=O)O; Dha = C=C(N)C(=O)O

How the values were obtained:
[1] = Thermogravimetric analysis (TG/dTG); assay type: physicochemical; details: dry powder, N2 50 mL/min, 10 °C/min, 30 to 600 °C
Procedure: The thermal behavior of the nisin-SACD complexes was evaluated using a thermogravimetric (TG) analysis system (TGA2, Mettler–Toledo, Schwerzenbach, Switzerland) under N2 (50 mL/min) at a 10 °C/min heating rate over a temperature range from 30 to 600 °C.

[2] = tested on: S. aureus (ATCC 6538); assay: Antibacterial activity by optical density (OD600) of bacterial culture; assay type: cell-based
Procedure: The antimicrobial activities of the samples were determined using S. aureus (ATCC 6538) as a representative Gram-positive bacterium. The optical density (OD) was used to assess the antibacterial activity of the nisin and the nisin-SACD complexes[41],[42]. The bacteria were precultured on Luria-Bertani media at 37 °C for 24 h to obtain seed cultures. These seed cultures were then diluted to 10^6 CFU using Luria-Bertani media. […] A bacteria culture containing no sample was used as a blank control group. After incubating at 37 °C for 24 h, the growth of bacteria in the culture media was determined by recording the OD at 600 nm (OD600) using an UV-visible spectrophotometer (UV–1800PC, Mapada, China).

[3] = tested on: S. aureus; assay: Live/dead bacterial double stain fluorescence intensity; assay type: cell-based; details: complexes at their MIC levels, result in words
Procedure: (§1) After confirming the antibacterial activity of nisin-SACD complexes, the MIC of nisin-SACD complexes was further measured by the broth microdilution method as reported by Li et al.. […] The initial solutions were then serially diluted until the concentration of them reached 3.125 µg/mL, 0.3125 mg/mL, 0.3125 mg/mL, and 0.3125 mg/mL, respectively. 100 µL of the samples at different concentrations were then cultured with 100 µL S. aureus dilutions containing 10^6 CFU bacteria in 96-well plates. The plates were incubated at 37 °C for 24 h. […] S aureus treated with nisin-SACD and HSS-nisin-SACD at MIC were further stained using a live/dead bacterial double stain kit (LMAI Bio, China), and the number of the total bacteria and dead bacteria could be represented by the fluorescence intensity value directly. Note there is no statistical relationship between the fluorescence intensity of the total bacteria and the dead bacteria, since they are stained by two different fluorescent dyes.

[4] = tested on: S. aureus; assay: MIC by broth microdilution; assay type: cell-based; details: nisin 3.125-400 µg/mL, SACD 0.3125-40 mg/mL, 37 °C, 24 h, result in words
Procedure: as §1

[5] = tested on: S. aureus; details: pure SACD at a relatively high dose; result in words; cited from earlier work
Text: S. aureus is commonly used as model Gram-positive bacteria to predict the antibacterial effects of the bacteriostatic agent. Meanwhile, it is a significant cause of foodborne illness leading to gastroenteritis, diarrhea, and vomiting. Foods susceptible to S. aureus intoxication including meat, egg, and dairy products. It is known that nisin can deactivate bacteria by adsorbing to the cell membrane, disrupting the cell membrane, and promoting the loss of essential int ...

## Nisin (I[Dhb]SI[Dha]LCTPGCKTGALMGCNMKTATCHCSIHV[Dha]K; thioether (positions not given here); not fully specified (residues 3, 8, 13, 23, 25, bridges); UniProt P13068 24-57, looked up) [natural bacteriocin, small peptide of 34 amino acid residues produced by Lactococcus lactis; purchased from Aladdin]
[1]
  maximum decomposition peak temperature (dTG): 333 °C
  weight loss at the end of heating (TG): < 7%
[2]; 1 mg nisin or 50 mg nisin-SACD (containing 1 mg nisin) in 10 mL culture (10^6 CFU), LB media, 37 °C, 24 h, blank OD600 1.23, n = 3
  OD600 value of the bacterial suspension after treatment: 0.46
[2]; as for OD600, relative to blank 1.23
  fold decrease of OD600 versus untreated culture: 2.7 fold
[3]
  total and dead bacteria (fluorescence intensity) in comparison to the untreated group: Certain degree of inhibition on bacteria proliferation
[4]
  antibacterial effects at the setting concentration range (MIC test): no significant antibacterial effects

## succinic acid-β-cyclodextrin [SACD]
[5]
  antibacterial activity against S. aureus: did show antibacterial activity
[3]
  total and dead bacteria (fluorescence intensity) in comparison to the untreated group: Certain degree of inhibition on bacteria proliferation
[4]
  antibacterial effects at the setting concentration range (MIC test): no significant antibacterial effects
